Assay results reported in patent US20250368638A1, “BICYCLIC INHIBITORS OF NICOTINAMIDE […], COMPOSITIONS AND USES THEREOF” (President and Fellows of Harvard College, priority 2021, published 2025).
Read-outs that look alike come from different tables or passages of the source.

Experiments:
[1] = Permeability assay in Caco-2 cells; conditions: human
Description: Preparation of Caco-2 Cells: 50 μL and 25 mL of cell culture medium were added to each well of the Transwell insert and reservoir, respectively. And then the HTS transwell plates were incubated at 37° C., 5% CO2 for 1 hour before cell seeding. […] Cell culture medium was replaced every other day, beginning no later than 24 hours after initial plating.
Preparation of Stock Solutions: The stock solutions of control and test compounds were prepared in DMSO at the concentration of 10 mM. Digoxin, Prazosin and propranolol were used as control compounds in this assay.
Assay Procedures: The Caco-2 plate was removed from the incubator and washed twice with pre-warmed HBSS (10 mM HEPES, pH 7.4), and then incubated at 37° C. for 30 minutes. The stock solutions of controls and Test compounds were diluted in DMSO to get 1 mM solutions and then diluted with HBSS (10 mM HEPES, pH 7.4) to get 5 μM working solutions. The final concentration of DMSO in the incubation system was 0.5%. To determine the rate of drug transport in the apical to basolateral direction. Add 125 μL of the test compounds to the Transwell insert (apical compartment), and transfer 50 μL sample (DO sample) immediately from the apical compartment to a new 96-well plate. Fill the wells in the receiver plate (basolateral compartment) with 235 μL of HBSS (10 mM HEPES, pH 7.4). To determine the rate of drug transport in the basolateral to apical direction. Add 285 μL of the test compounds to the receiver plate wells (basolateral compartment), and transfer 50 μL sample (DO sample) immediately from the basolateral compartment to a new 96-well plate. Fill the Transwell insert (apical compartment) with 75 μL of HBSS (10 mM HEPES, pH 7.4). Time 0 samples were prepared by transferring 50 μL of 5 μM working solution to wells of the 96-deepwell plate, followed by the addition of 200 μL cold acetonitrile containing appropriate internal standards (100 nM alprazolam, 200 nM labetalol, 200 nM caffeine and 200 nM diclofenac). The plates were incubated at 37° C. for 2 hours. […] Samples were vortexed for 5 minutes and then centrifuged at 3,220 g for 40 minutes. An aliquot of 100 μL of the supernatant was mixed with 100 μL of ultra-pure water to use for LC-MS/MS analysis. To determine the Lucifer Yellow leakage after 2 hour transport period, stock solution of Lucifer yellow was prepared in water and diluted with HBSS (10 mM HEPES, pH 7.4) to reach the final concentration of 100 μM. 100 μL of the Lucifer yellow solution was added to each Transwell insert (apical compartment), followed by filling the wells in the receiver plate (basolateral compartment) with 300 μL of HBSS (10 mM HEPES, pH 7.4). The plates were incubated at 37° C. for 30 minutes. 80 μL samples were removed directly from the apical and basolateral wells (using the basolateral access holes) and transferred to wells of new 96 wells plates.

[2] = Metabolic stability in pooled human liver microsomes
Description: A master solution was prepared according to the following table.
40 μL of 10 mM NADPH solution was added to each well. The final concentrations of NADPH was 1 mM. The mixture was pre-warmed at 37° C. for 5 minutes. The negative control samples were prepared by replacing NADPH solutions with 40 μL of ultra-pure H2O. The negative control was used to exclude the misleading factor that resulted from instability of chemical itself. Samples with NADPH were prepared in duplicate. Negative controls were prepared in singlet.
The reaction was started with the addition of 4 μL of 200 μM control compound or test compound solutions. […] Samples were centrifuged at 3, 220 g for 40 minutes. Aliquot of 90 μL of the supernatant was mixed with 90 μL of ultra-pure H2O and then used for LC-MS/MS analysis.
For metabolite standard samples: 1 μL of 400 μM working solution was added to 89 μL master solution following by adding 400 μL of cold acetonitrile with internal standard (IS) (100 nM alprazolam, 200 nM Imipramine, 200 nM labetalol and 2 μM ketoprofen). Then 10 μL of 10 mM NADPH solution or ultra-pure H2O was added to the mixture. Samples were centrifuged at 3,220 g for 40 minutes to precipitate protein. Aliquots of 90 μL supernatant diluted by 90 μL of water was used for LC-MS/MS analysis.

[3] = Mouse PK studies of 11 (plasma); type: in vivo, Female C57B16/N mice; conditions: for T1/2: formulation a (0.2% Tween 80, 10% PEG300); for MRT inf: read-out: MRTInf—obs
From the text: (§1) Doses were freshly prepared on the day of dosing. Vehicle compositions of each dose are listed below. […] Adjust pH with 1 N hydrochloric acid to obtain a clear solution or (b) 0.2% Tween 80/20% PEG-300 in water. Adjust pH with 1 N hydrochloric acid to obtain a clear solution
(§2) Then the samples were vortexed for 30 s.

1-MNA = assay: Plasma 1-MNA in mice after dosing with 11 (PK/PD); type: in vivo, Female C57B16/N mice
From the text: as §1, §2

[4] = female, C57B16/N, mouse, plasma, iv, 1 mg/kg, 1 mg/kg IV
[5] = female, C57B16/N, mouse, plasma, po, 10 mg/kg, 10 mg/kg PO, formulation a
[6] = female, C57B16/N, mouse, plasma, po, 50 mg/kg, 50 mg/kg PO, formulation a
[7] = female, C57B16/N, mouse, plasma, po, 50 mg/kg, 50 mg/kg PO, formulation b
[8] = female, C57B16/N, mouse, plasma, po, title: single 100 mg/kg dosage, 50 mg/kg^b, formulation b
[9] = female, C57B16/N, mouse, plasma, 1 mg/kg IV
[10] = 10 mg/kg PO of 11, formulation a

In the case of `C[C@@H]1Cc2cc(C(N)=O)cnc2N1` [Compound 11, (2R)-2-methyl-2,3-dihydro-1H-pyrrolo[2,3-b]pyridine-5-carboxamide], the Papp A→B at 2 h, 5 μM ([1]; Caco-2, pH 7.4) is reported as 27.5 ×10⁻⁶ cm/s, the Papp B→A at 2 h, 5 μM ([1]; Caco-2, pH 7.4) is reported as 21.8 ×10⁻⁶ cm/s and the efflux ratio at 2 h, 5 μM ([1]; Caco-2, pH 7.4) is reported as 0.79. The recovery at 2 h, 5 µM ([1]; Caco-2, pH 7.4, Recovery (%) AP-BL) was 102%, the recovery at 2 h, 5 µM ([1]; Caco-2, pH 7.4, Recovery (%) BL-AP) was 106% and the “Remaining (%) at 60 minutes” value ([2]; Human liver microsomes) was 97.33%. For the same compound, the CLint scaled at 2 μM ([2]; human, microsomes) was < 6.79 mL/min/kg, the half-life at 2 μM ([2]; human, microsomes) was > 4.26 h and the microsomal CLint at 2 μM ([2]; human, microsomes) was < 5.42 µL/min/mg. For the same compound, the AUClast/D ([3]; 1 mg/kg IV) was 464 kg·ng·h/mL/mg, the “AUC—%Extrap—obs” value ([3]; 1 mg/kg IV) was 0.574% and the Cl_obs ([3]; 1 mg/kg IV) was 36.1 mL/min/kg. For the same compound, the AUClast/D ([3]; 10 mg/kg PO, formulation a) was 58.2 kg·ng·h/mL/mg, the “AUC—%Extrap—obs” value ([3]; 10 mg/kg PO, formulation a) was 1.90% and the F_last ([3]; 10 mg/kg PO, formulation a) was 12.7%. The T1/2 ([3]; 10 mg/kg PO) was 1.309 h, the AUClast/D ([3]; 50 mg/kg PO, formulation a) was 1020 kg·ng·h/mL/mg and the “AUC—%Extrap—obs” value ([3]; 50 mg/kg PO, formulation a) was 0.258%. The Cmax ([3]; 50 mg/kg PO, formulation a) was 22500 ng/mL, the T1/2 ([3]; 50 mg/kg PO) was 2.89 h and the AUClast/D ([3]; 50 mg/kg PO, formulation b) was 865 kg·ng·h/mL/mg. The “AUC—%Extrap—obs” value ([3]; 50 mg/kg PO, formulation b) was 7.8%, the AUC(0-inf) [3, 4] was 467 ng·h/mL and the AUC(0-t) [3, 4] was 464 ng·h/mL. For the same compound, the MRT inf [3, 4] was 0.427 h, the AUC(0-inf) [3, 5] was 593 ng·h/mL and the AUC(0-t) [3, 5] was 582 ng·h/mL. It also gave an MRT inf [3, 5] of 2.21 h, an AUC(0-inf) [3, 6] of 51300 ng·h/mL and an AUC(0-t) [3, 6] of 51100 ng·h/mL. For the same compound, the MRT inf [3, 6] was 2.5 h, the AUC(0-inf) [3, 7] was 46700 ng·h/mL and the AUC(0-t) [3, 7] was 43200 ng·h/mL. The MRT inf [3, 7] was 3.97 h, the AUC(0-t) [3, 8] was 116000 ng·h/mL and the Tmax [3, 8] was 0.25 h. For the same compound, the half-life [3, 8] was 3.43 h, the Cmax ([3]; female, C57B16/N, mouse, plasma, po, title: single 100 mg/kg dosage, 50 mg/kg^b, formulation b, read-out: Cmax) was 43200 ng/mL and the C0 [3, 9] was 2620 ng/mL. The half-life [3, 9] was 0.148 h, the Tmax ([3]; female, C57B16/N, mouse, plasma, 10 mg/kg PO, formulation a) was 0.5 h and the Cmax ([3]; female, C57B16/N, mouse, plasma, 10 mg/kg PO, formulation a, read-out: Cmax) was 412 ng/mL. The Tmax ([3]; female, C57B16/N, mouse, plasma, 50 mg/kg PO, formulation a) was 0.25 h, the half-life ([3]; female, C57B16/N, mouse, plasma, 50 mg/kg PO, formulation b (0.2% Tween 80, 20% PEG300)) was 4.1 h and the Cmax ([3]; female, C57B16/N, mouse, plasma, 50 mg/kg PO, formulation b, read-out: Cmax) was 19000 ng/mL. The “AUClast of 1-MNA” value (1-MNA; 1 mg/kg IV of 11) was 1289 ng·h/mL, the “AUClast of 1-MNA” value (1-MNA; [10]) was 943 ng·h/mL and the “Cmax of 1-MNA” value (1-MNA; [10]) was 54.9 ng/mL. The “Tmax of 1-MNA” value (1-MNA; [10]) was 24.0 h, the “AUClast of 1-MNA” value (1-MNA; 50 mg/kg of 11, formulation a) was 653 ng·h/mL and the “Cmax of 1-MNA” value (1-MNA; 50 mg/kg of 11, formulation a) was 54.8 ng/mL. The “Tmax of 1-MNA” value (1-MNA; 50 mg/kg of 11, formulation a) was 24.0 h, the “AUClast of 1-MNA” value (1-MNA; 50 mg/kg of 11, formulation b) was 667 ng·h/mL and the “Cmax of 1-MNA” value (1-MNA; 50 mg/kg of 11, formulation b) was 70.1 ng/mL. For the same compound, the “Tmax of 1-MNA” value (1-MNA; 50 mg/kg of 11, formulation b) was 8.17 h.
